Measurements from patent US8124760B2, “Pyridyl-triazolopyrimidine derivative or its salt, pesticide containing it and its production process” (Ishihara Sangyo Kaisha, Ltd., priority 2007, dated 2012).
Read-outs that look alike come from different tables or passages of the source.

What was measured:
Type in all cases: in vivo
[1] = tested on: Silverleaf Whitefly (Bemisia Argentifolii); experiment: Test on controlling effects against silverleaf whitefly (cucumber seedling spray); details: 168 h, hand spray to cucumber seedling, first-second instar nymphs, 7 days after the treatment, 25° C., read-out: protective value
Procedure: Test on Controlling Effects Against Silverleaf Whitefly (Bemisia Argentifolii) An insecticidal solution prepared to bring the concentration of the compound of the present invention to 200 ppm was applied by a hand spray to cucumber seedling planted in a pot on which first-second instar nymphs of silverleaf whitefly were parasitic, and dried in air. Thereafter, the cucumber seedling was left in a constant temperature chamber at 25° C. with lightening. The number of old instar nymphs was counted 7 days after the treatment, and the protective value (%) was obtained by the following equation. […] Protective value (%)=(1−((Ta×Cb)/(Tb×Ca)))×100 Ta: The number of old instar nymphs after the treatment at the treated cucumber seedling Tb: The number of first-second instar nymphs before the treatment at the treated cucumber seedling Ca: The number of old instar nymphs after the treatment at the untreated cucumber seedling Cb: the number of first-second instar nymphs before the treatment at the untreated cucumber seedling

[2] = tested on: Brown Planthopper (Nilaparvata lugens); experiment: Test on controlling effects against brown planthopper (rice seedling dip)
Excerpt: Test on Controlling Effects Against Brown Planthopper (Nilaparvata lugens)
Rice seedling was dipped for about 10 seconds in an insecticidal solution prepared to bring the concentration of the compound of the present invention to 200 ppm and then dried in air, its root was wrapped with a wet absorbent cotton, and the seedling was put into a test tube. Then, 10 second-third instar nymphs of Brown Planthopper were released therein, and the test tube was covered with a gauze and left in a constant temperature chamber at 25° C. with lightening. On the 5th day after the release, dead nymphs were counted, and the mortality was calculated by the following equation.

[3] = tested on: Green Peach Aphid (Myzus persicae); experiment: Test on controlling effects against green peach aphid (leaf dip); details: foliar, 120 h, Japanese radish leaf dipped about 10 seconds, first instar nymphs, 5 days after the treatment, 25° C.
Excerpt: Test on Controlling Effects Against Green Peach Aphid (Myzus persicae)
A Japanese radish leaf was inserted in a test tube in which water was put, and about 20 first instar nymphs of green peach aphid were released on the leaf. On the next day, the number of nymphs parasitic on the leaf was counted, and then the leaf was dipped for about 10 seconds in an insecticidal solution prepared to bring the concentration of the compound of the present invention to 200 ppm, dried in air and left in a constant temperature chamber at 25° C. with lightening. Dead nymphs were counted 5 days after the treatment, and the mortality was calculated by the following equation. The insects dropped from the leaf or presented toxic symptom were counted as dead insects. […] Mortality (%)=(1−(number of survived insects/number of treated insects))×100

[4] = 200 ppm, rice seedling dipped about 10 seconds, second-third instar nymphs, 5th day after the release, 25° C., read-out: mortality

SMILES | pest or weed control at 200 ppm [1] | mortality at 200 ppm [2, 4] | mortality at 200 ppm [3] | mortality at 200 ppm [2]
Fc1cc(C(F)(F)F)cnc1-c1ccnc2ncnn12 [compound 5] | ≥ 80% |  |  | 
O=[N+]([O-])c1cc(C(F)(F)F)cnc1-c1ccnc2ncnn12 [compound 12] | ≥ 80% | ≥ 90% |  | 
N#Cc1cc(C(F)(F)F)cnc1-c1ccnc2ncnn12 [compound 14] | ≥ 80% |  |  | 
Cc1cc(-c2ncc(C(F)(F)F)cc2Br)n2ncnc2n1 [compound 15] | ≥ 80% | ≥ 90% | ≥ 90% | 
CCCc1cc(-c2ncc(C(F)(F)F)cc2Cl)n2ncnc2n1 [compound 17] | ≥ 80% | ≥ 90% | ≥ 90% | 
Cc1cc(-c2ccc(C(F)(F)F)cn2)n2ncnc2n1 [compound 18] | ≥ 80% |  | ≥ 90% | 
Cc1cc(-c2ncc(C(F)(F)F)cc2I)n2ncnc2n1 [compound 41] |  | ≥ 90% | ≥ 90% | 
Cc1cc(-c2ncc(C(F)(F)F)cc2C#N)n2ncnc2n1 [compound 43] |  | ≥ 90% | ≥ 90% | 
Cc1cc(-c2ncc(C(F)(F)F)cc2C)n2ncnc2n1 [compound 44] | ≥ 80% | ≥ 90% | ≥ 90% | 
Cc1cc(-c2cc(C(F)(F)F)cc(C(F)(F)F)n2)n2ncnc2n1 [compound 51] |  |  | ≥ 90% | 
Cc1cc(-c2ncc(C(F)(F)F)cc2-c2ccccc2)n2ncnc2n1 [compound 52] |  | ≥ 90% |  | 
Cc1cc(-c2ncc(Cl)cc2C(F)(F)F)n2ncnc2n1 [compound 57] |  | ≥ 90% |  | 
Cc1cc(-c2nc(Cl)c(C(F)(F)F)cc2Cl)n2ncnc2n1 [compound 68] |  | ≥ 90% | ≥ 90% | 
N#Cc1cc(-c2ncc(C(F)(F)F)cc2Cl)n2ncnc2n1 [compound 70] |  | ≥ 90% |  | 
Cc1cc(-c2ncc(C(F)(F)F)cc2[N+](=O)[O-])n2ncnc2n1 [compound 78] |  |  | ≥ 90% | 
CCc1cc(C(F)(F)F)cnc1-c1cc(C)nc2ncnn12 [compound 79] |  | ≥ 90% | ≥ 90% | 

SMILES | pest or weed control at 200 ppm [1] | mortality at 200 ppm [2, 4] | mortality at 200 ppm [3] | mortality at 200 ppm [2]
CC(C)c1cc(-c2ncc(C(F)(F)F)cc2Cl)n2ncnc2n1 [compound 80] | ≥ 80% | ≥ 90% | ≥ 90% | 
CCCCc1cc(-c2ncc(C(F)(F)F)cc2Cl)n2ncnc2n1 [compound 83] |  | ≥ 90% |  | 
CC(C)(C)c1cc(-c2ncc(C(F)(F)F)cc2Cl)n2ncnc2n1 [compound 89] |  | ≥ 90% |  | 
FC(F)(F)c1cnc(-c2cc(-c3ccco3)nc3ncnn23)c(Cl)c1 [compound 91] |  |  |  | ≥ 90%
FC(F)(F)c1cnc(-c2cc(C3CC3)nc3ncnn23)c(Br)c1 [compound 94] | ≥ 80% | ≥ 90% | ≥ 90% | 
CC1(c2cc(-c3ncc(C(F)(F)F)cc3Cl)n3ncnc3n2)CC1 [compound 98] |  | ≥ 90% |  | 
FC(F)(F)c1cnc(-c2cc(C3CCC3)nc3ncnn23)c(Cl)c1 [compound 99] |  | ≥ 90% |  | 
Cc1cc(-c2nc(Cl)c(C(F)(F)F)cc2F)n2ncnc2n1 [compound 105] |  | ≥ 90% |  | 
FC(F)(F)c1cnc(-c2cc(C3CCCC3)nc3ncnn23)c(Cl)c1 [compound 107] |  | ≥ 90% |  | 
FC(F)(F)c1cnc(-c2ccnc3ncnn23)c(Br)c1 [compound No. 4, 7-(3-bromo-5-(trifluoromethyl)pyridin-2-yl)-[1,2,4]triazolo[1,5-a]pyrimidine] | ≥ 80% | ≥ 90% | ≥ 90% | 
CCc1cc(-c2ncc(C(F)(F)F)cc2Cl)n2ncnc2n1 [compound No. 16, 7-(3-chloro-5-(trifluoromethyl)pyridin-2-yl)-5-ethyl-[1,2,4]triazolo[1,5-a]pyrimidine] | ≥ 80% | ≥ 90% | ≥ 90% | 
Cc1cc(-c2ncc(C(F)(F)F)cc2Cl)n2ncnc2n1 [compound No. 19, 7-(3-chloro-5-(trifluoromethyl)pyridin-2-yl)-5-methyl-[1,2,4]triazolo[1,5-a]pyrimidine] | ≥ 80% | ≥ 90% | ≥ 90% | 
FC(F)(F)c1cnc(-c2cc(C(F)(F)F)nc3ncnn23)c(Cl)c1 [compound No. 20, 7-(3-chloro-5-(trifluoromethyl)pyridin-2-yl)5-(trifluoromethyl)-[1,2,4]triazolo[1,5-a]pyrimidine] | ≥ 80% | ≥ 90% | ≥ 90% | 
FC(F)(F)c1cnc(-c2cc(C3CC3)nc3ncnn23)c(Cl)c1 [compound No. 82, 7-(3-chloro-5-(trifluoromethyl)pyridin-2-yl)-5-cyclopropyl-[1,2,4]triazolo[1,5-a]pyrimidine] | ≥ 80% | ≥ 90% | ≥ 90% | 
CC(C)c1cc(-c2ncc(C(F)(F)F)cc2Br)n2ncnc2n1 [compound No. 95, 7-(3-bromo-5-(trifluoromethyl)pyridin-2-yl)-5-isopropyl-[1,2,4]triazolo[1,5-a]pyrimidine] |  | ≥ 90% | ≥ 90% | 
